Assay results taken from PubChem BioAssay (NCI).
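Exposure lasted 48 hours, with cells grown in 96-well plates and compounds tested at five concentrations. The concentration for 50% growth inhibition is given as GI50. Definition used: TGI = concentration required for complete inhibition of growth.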

Experiments:
Test in all cases: inhibition of tumour cell growth, NCI panel, 48 h
[1] = system: MDA-MB-231 breast
[2] = system: IGROV1 ovarian
[3] = system: NCI-H23 lung
[4] = system: MDA-MB-435
[5] = system: CCRF-CEM leukemia
[6] = system: OVCAR-5 ovarian
[7] = system: HS 578T breast
[8] = system: ACHN renal
[9] = system: DU-145 prostate
[10] = system: SN12C renal
[11] = system: SK-MEL-28 melanoma
[12] = system: HL-60(TB) leukemia
[13] = system: OVCAR-8 ovarian
[14] = system: MCF7 breast
[15] = system: UACC-257 melanoma
[16] = system: RXF 393 renal
[17] = system: SF-268 CNS
[18] = system: RPMI-8226 leukemia
[19] = system: SK-OV-3 ovarian
[20] = system: HOP-92 NSCLC
[21] = system: TK-10 renal
[22] = system: PC-3 prostate
[23] = system: CAKI-1 renal
[24] = system: MOLT-4 leukemia
[25] = system: HOP-62 NSCLC
[26] = system: UO-31 renal
[27] = system: OVCAR-4 ovarian
[28] = system: SK-MEL-2 melanoma
[29] = system: SNB-19 CNS
[30] = system: OVCAR-3 ovarian
[31] = system: SNB-75 CNS
[32] = system: HCC-2998 colon
[33] = system: K-562 leukemia
[34] = system: U251 CNS
[35] = system: COLO 205 colon
[36] = system: LOX IMVI melanoma
[37] = system: SK-MEL-5 melanoma
[38] = system: MALME-3M melanoma
[39] = system: T-47D breast
[40] = system: NCI/ADR-RES ovarian
[41] = system: SR leukemia
[42] = system: KM12 colon
[43] = system: SW-620 colon
[44] = system: A498 renal
[45] = system: HT29 colon
[46] = system: SF-539 CNS
[47] = system: HCT-15 colon
[48] = system: M14 melanoma
[49] = system: NCI-H522 lung
[50] = system: SF-295 CNS
[51] = system: NCI-H226 lung
[52] = system: A549 NSCLC
[53] = system: NCI-H460 lung
[54] = system: 786-0 renal
[55] = system: UACC-62 melanoma
[56] = system: HCT-116 colon
[57] = system: BT-549 breast
[58] = system: EKVX NSCLC

`CCOCCCn1c2c(c3c(O)cccc31)C(=O)c1ccccc1-2` showed a GI50 [1] of 12.8 µM, a TGI [1] of 35.3 µM and a GI50 [2] of 17.1 µM. It also gave a TGI [2] of 48.7 µM, a GI50 [3] of 19.1 µM and a TGI [3] of 53.2 µM. The GI50 [4] was 18.4 µM, the TGI [4] was 46.5 µM and the GI50 [5] was 25.1 µM. For the same compound, the TGI [5] was 88.6 µM, the GI50 [6] was 17.8 µM and the TGI [6] was 39.9 µM. For the same compound, the GI50 [7] was 32.8 µM, the TGI [7] was 82.3 µM and the GI50 [8] was 20.6 µM. It also gave a TGI [8] of 55 µM, a GI50 [9] of 33.3 µM and a TGI [9] greater than 100 µM. For the same compound, the GI50 [10] was 11.5 µM, the TGI [10] was 25.5 µM and the GI50 [11] was 22.5 µM. For the same compound, the TGI [11] was 46.3 µM, the GI50 [12] was 13.2 µM and the TGI [12] was 31.4 µM. It also gave a GI50 [13] of 31.1 µM, a TGI [13] greater than 100 µM and a GI50 [14] of 32.6 µM. The TGI [14] was greater than 100 µM, the GI50 [15] was 27.8 µM and the TGI [15] was 68.6 µM. The GI50 [16] was 30.3 µM, the TGI [16] was 82.1 µM and the GI50 [17] was 18.1 µM. For the same compound, the TGI [17] was 50.3 µM, the GI50 [18] was 16.4 µM and the TGI [18] was 43.9 µM. It also gave a GI50 [19] of 24.8 µM, a TGI [19] of 72.4 µM and a GI50 [20] of 16.8 µM. For the same compound, the TGI [20] was 43.3 µM, the GI50 [21] was 23.4 µM and the TGI [21] was 76.2 µM. The GI50 [22] was 14.7 µM, the TGI [22] was 36.7 µM and the GI50 [23] was 21.6 µM. It also gave a TGI [23] of 64.1 µM, a GI50 [24] of 13.7 µM and a TGI [24] of 32.7 µM. For the same compound, the GI50 [25] was 17.8 µM, the TGI [25] was 48 µM and the GI50 [26] was 15.9 µM. The TGI [26] was 38.4 µM, the GI50 [27] was 21.3 µM and the TGI [27] was 69.3 µM. For the same compound, the GI50 [28] was 20.3 µM, the TGI [28] was 38.5 µM and the GI50 [29] was 26.7 µM. It also gave a TGI [29] greater than 100 µM, a GI50 [30] of 21.9 µM and a TGI [30] of 55.3 µM. It also gave a GI50 [31] of 20.5 µM, a TGI [31] of 50.3 µM and a GI50 [32] of 22.1 µM. The TGI [32] was 64.3 µM, the GI50 [33] was 18.6 µM and the TGI [33] was 55.7 µM. For the same compound, the GI50 [34] was 23.7 µM, the TGI [34] was 62.5 µM and the GI50 [35] was 16 µM. For the same compound, the TGI [35] was 33.3 µM, the GI50 [36] was 17.2 µM and the TGI [36] was 32.7 µM. For the same compound, the GI50 [37] was 15.8 µM, the TGI [37] was 29.8 µM and the GI50 [38] was 14.7 µM. For the same compound, the TGI [38] was 37.1 µM, the GI50 [39] was 13.9 µM and the TGI [39] was 46.5 µM. It also gave a GI50 [40] of 20.8 µM, a TGI [40] of 56.5 µM and a GI50 [41] of 10.6 µM. For the same compound, the TGI [41] was 27.7 µM, the GI50 [42] was 16.6 µM and the TGI [42] was 39.4 µM. The GI50 [43] was 28.4 µM, the TGI [43] was greater than 100 µM and the GI50 [44] was 21.7 µM. The TGI [44] was 52.5 µM, the GI50 [45] was 30.2 µM and the TGI [45] was greater than 100 µM. For the same compound, the GI50 [46] was 24.7 µM, the TGI [46] was 63.3 µM and the GI50 [47] was 26.8 µM. The TGI [47] was 65.6 µM, the GI50 [48] was 16.2 µM and the TGI [48] was 31.5 µM. The GI50 [49] was 14 µM, the TGI [49] was 35.7 µM and the GI50 [50] was 21.4 µM. The TGI [50] was 55.3 µM, the GI50 [51] was 24.1 µM and the TGI [51] was 81.6 µM. It also gave a GI50 [52] of 29.2 µM, a TGI [52] greater than 100 µM and a GI50 [53] of 21.6 µM. For the same compound, the TGI [53] was 63.9 µM, the GI50 [54] was 22 µM and the TGI [54] was 51.9 µM. It also gave a GI50 [55] of 14.5 µM, a TGI [55] of 30.1 µM and a GI50 [56] of 16.6 µM. The TGI [56] was 33.5 µM, the GI50 [57] was 29 µM and the TGI [57] was 87.8 µM. For the same compound, the GI50 [58] was 24.3 µM and the TGI [58] was 79 µM.
